Legend:
Assay in all cases: KINOMEscan
Format in all cases: binding
Details in all cases: read-out: % control activity remaining
MAST1 = target: T1, MAST1 (Homo sapiens, UniProt Q9Y2H9)
T1 construct: purchased Eurofins DiscoverX KINOMEscan

RIOK2 = target: T2, RIOK2 (Homo sapiens, UniProt Q9BVS4)
T2 construct: purchased Eurofins DiscoverX KINOMEscan

MST4 = target: T3, MST4 (Homo sapiens, UniProt Q9P289)
T3 construct: purchased Eurofins DiscoverX KINOMEscan

[1] = target: T4, RPS6KA4(Kin.Dom.1-N-terminal) (Homo sapiens, UniProt O75676)
T4 construct: RPS6KA4(Kin.Dom.1-N-terminal); purchased Eurofins DiscoverX KINOMEscan
T4 sequence (O75676 33-301 limits assumed): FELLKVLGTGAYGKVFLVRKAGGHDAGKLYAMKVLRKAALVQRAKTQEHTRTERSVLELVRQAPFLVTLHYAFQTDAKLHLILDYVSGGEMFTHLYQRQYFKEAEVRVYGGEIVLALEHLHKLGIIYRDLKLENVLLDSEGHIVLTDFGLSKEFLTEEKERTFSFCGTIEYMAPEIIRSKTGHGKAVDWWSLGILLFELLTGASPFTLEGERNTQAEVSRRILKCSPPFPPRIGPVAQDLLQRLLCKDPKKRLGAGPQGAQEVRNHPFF

DCAMKL3 = target: T5, DCAMKL3 (Homo sapiens, UniProt Q9C098)
T5 construct: purchased Eurofins DiscoverX KINOMEscan
T5 sequence (Q9C098 1-648): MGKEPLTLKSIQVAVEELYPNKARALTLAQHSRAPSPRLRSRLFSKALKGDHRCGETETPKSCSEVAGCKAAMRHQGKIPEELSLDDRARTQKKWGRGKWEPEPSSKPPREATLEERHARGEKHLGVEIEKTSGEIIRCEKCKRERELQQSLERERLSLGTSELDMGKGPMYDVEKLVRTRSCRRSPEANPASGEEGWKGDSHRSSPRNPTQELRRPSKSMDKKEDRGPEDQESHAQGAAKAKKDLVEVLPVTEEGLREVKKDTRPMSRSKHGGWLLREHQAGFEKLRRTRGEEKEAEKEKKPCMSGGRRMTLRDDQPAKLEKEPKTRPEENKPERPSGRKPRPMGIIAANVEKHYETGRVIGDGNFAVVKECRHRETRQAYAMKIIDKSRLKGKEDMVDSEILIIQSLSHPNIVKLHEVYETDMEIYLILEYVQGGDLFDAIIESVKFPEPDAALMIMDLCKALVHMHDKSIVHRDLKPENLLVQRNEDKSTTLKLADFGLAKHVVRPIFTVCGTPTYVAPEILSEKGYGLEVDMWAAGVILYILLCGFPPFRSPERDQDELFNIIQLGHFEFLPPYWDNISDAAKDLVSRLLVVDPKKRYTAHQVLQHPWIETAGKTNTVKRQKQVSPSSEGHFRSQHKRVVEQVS

p38-delta = target: T6, p38-delta (Homo sapiens, UniProt O15264)
T6 construct: purchased Eurofins DiscoverX KINOMEscan
T6 sequence (O15264 1-365): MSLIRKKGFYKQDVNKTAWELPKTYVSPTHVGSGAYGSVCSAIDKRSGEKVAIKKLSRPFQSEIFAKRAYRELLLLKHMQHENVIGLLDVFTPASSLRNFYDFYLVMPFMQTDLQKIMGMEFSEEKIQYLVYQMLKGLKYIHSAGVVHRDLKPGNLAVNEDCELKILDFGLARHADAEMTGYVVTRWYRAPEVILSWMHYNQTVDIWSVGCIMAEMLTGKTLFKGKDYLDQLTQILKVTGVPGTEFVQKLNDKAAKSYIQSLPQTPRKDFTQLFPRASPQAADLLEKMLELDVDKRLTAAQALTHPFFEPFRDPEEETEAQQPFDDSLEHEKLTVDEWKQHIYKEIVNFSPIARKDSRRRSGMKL

ACVR1 = target: T7, ACVR1 (Homo sapiens, UniProt Q04771)
T7 construct: purchased Eurofins DiscoverX KINOMEscan
T7 sequence (Q04771 21-509): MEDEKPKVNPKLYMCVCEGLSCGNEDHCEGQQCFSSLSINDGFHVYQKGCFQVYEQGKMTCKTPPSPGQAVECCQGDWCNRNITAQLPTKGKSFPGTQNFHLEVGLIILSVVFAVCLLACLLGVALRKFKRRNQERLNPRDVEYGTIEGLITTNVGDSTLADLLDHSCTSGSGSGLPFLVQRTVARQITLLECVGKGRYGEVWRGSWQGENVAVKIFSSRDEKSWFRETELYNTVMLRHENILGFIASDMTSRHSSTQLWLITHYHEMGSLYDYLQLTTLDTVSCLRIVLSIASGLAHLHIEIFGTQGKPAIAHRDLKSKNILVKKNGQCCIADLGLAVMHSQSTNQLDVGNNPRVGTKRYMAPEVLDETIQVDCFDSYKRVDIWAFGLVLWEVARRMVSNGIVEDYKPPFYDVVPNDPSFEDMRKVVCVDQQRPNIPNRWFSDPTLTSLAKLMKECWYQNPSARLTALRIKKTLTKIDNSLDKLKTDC

SRPK1 = target: T8, SRPK1 (Homo sapiens, UniProt Q96SB4)
T8 construct: purchased Eurofins DiscoverX KINOMEscan

SGK2 = target: T9, SGK2 (Homo sapiens, UniProt Q9HBY8)
T9 construct: purchased Eurofins DiscoverX KINOMEscan
T9 sequence (Q9HBY8 1-367): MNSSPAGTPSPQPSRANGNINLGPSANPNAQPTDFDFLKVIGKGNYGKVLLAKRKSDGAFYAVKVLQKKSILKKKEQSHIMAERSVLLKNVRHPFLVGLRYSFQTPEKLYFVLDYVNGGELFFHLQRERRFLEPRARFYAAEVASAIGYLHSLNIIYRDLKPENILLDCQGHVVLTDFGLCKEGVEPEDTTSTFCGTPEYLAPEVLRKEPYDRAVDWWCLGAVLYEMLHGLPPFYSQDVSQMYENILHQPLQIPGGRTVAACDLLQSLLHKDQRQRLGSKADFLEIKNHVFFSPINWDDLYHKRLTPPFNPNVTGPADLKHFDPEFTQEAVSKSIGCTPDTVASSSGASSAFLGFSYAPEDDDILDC

MARK3 = target: T10, MARK3 (Homo sapiens, UniProt P27448)
T10 construct: purchased Eurofins DiscoverX KINOMEscan

MARK2 = target: T11, MARK2 (Homo sapiens, UniProt Q7KZI7)
T11 construct: purchased Eurofins DiscoverX KINOMEscan

FGR = target: T12, FGR (Homo sapiens, UniProt P09769)
T12 construct: purchased Eurofins DiscoverX KINOMEscan

YES = target: T13, YES (Homo sapiens, UniProt P07947)
T13 construct: purchased Eurofins DiscoverX KINOMEscan

T12 sequence (P09769 whole entry): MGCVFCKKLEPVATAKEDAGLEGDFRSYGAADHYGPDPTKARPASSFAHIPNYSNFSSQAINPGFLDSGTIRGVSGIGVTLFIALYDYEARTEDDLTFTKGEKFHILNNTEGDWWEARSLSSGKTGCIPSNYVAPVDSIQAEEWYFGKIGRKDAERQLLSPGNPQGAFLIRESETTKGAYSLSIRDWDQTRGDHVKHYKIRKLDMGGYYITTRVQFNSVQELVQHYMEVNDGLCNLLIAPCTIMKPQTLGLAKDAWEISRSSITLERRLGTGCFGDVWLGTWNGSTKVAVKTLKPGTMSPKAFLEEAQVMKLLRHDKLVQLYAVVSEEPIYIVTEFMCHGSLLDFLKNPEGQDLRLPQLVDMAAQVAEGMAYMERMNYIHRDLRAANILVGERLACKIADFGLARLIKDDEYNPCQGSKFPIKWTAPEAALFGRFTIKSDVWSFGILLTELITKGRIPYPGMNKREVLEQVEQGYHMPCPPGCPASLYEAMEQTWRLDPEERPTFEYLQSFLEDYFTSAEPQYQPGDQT
T1 sequence (Q9Y2H9 whole entry): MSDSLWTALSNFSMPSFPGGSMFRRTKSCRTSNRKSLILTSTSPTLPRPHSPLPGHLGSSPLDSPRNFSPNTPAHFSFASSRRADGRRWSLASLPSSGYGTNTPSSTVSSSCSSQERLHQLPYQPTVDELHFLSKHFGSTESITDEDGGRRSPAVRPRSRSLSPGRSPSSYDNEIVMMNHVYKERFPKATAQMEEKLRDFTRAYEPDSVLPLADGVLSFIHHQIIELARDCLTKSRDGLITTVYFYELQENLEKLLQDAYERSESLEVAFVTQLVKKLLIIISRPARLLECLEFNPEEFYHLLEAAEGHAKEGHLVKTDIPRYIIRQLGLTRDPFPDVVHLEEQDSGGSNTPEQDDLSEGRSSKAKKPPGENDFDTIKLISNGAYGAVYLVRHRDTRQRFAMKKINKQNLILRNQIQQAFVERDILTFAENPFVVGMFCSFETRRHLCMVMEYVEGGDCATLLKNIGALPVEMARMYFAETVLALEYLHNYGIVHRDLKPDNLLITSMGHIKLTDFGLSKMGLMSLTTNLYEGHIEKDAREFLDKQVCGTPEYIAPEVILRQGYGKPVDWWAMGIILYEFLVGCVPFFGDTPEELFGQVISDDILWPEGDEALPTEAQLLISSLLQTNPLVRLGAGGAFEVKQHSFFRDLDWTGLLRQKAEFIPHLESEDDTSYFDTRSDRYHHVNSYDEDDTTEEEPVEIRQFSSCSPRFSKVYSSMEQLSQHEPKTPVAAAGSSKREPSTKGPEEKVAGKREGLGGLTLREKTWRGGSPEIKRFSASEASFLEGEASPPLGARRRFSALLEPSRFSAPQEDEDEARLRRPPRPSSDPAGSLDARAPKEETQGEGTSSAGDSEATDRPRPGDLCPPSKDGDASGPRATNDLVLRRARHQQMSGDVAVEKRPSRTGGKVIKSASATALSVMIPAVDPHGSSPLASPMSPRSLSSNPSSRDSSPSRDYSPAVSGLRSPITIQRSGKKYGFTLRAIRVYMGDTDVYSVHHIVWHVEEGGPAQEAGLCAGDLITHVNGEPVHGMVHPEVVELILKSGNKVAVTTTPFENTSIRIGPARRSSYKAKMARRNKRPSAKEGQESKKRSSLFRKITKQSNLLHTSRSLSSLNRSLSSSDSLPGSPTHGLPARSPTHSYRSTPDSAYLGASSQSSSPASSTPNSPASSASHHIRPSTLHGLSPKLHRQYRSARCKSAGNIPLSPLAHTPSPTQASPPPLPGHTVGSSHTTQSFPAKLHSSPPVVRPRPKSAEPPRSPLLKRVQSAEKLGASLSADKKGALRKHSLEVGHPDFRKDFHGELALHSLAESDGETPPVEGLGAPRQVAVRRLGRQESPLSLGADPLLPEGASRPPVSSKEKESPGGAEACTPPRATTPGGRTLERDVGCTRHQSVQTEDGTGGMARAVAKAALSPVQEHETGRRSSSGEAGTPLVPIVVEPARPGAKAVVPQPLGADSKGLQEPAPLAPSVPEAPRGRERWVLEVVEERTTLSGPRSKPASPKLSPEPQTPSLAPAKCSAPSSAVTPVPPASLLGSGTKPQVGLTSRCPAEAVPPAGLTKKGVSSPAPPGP
T2 sequence (Q9BVS4 whole entry): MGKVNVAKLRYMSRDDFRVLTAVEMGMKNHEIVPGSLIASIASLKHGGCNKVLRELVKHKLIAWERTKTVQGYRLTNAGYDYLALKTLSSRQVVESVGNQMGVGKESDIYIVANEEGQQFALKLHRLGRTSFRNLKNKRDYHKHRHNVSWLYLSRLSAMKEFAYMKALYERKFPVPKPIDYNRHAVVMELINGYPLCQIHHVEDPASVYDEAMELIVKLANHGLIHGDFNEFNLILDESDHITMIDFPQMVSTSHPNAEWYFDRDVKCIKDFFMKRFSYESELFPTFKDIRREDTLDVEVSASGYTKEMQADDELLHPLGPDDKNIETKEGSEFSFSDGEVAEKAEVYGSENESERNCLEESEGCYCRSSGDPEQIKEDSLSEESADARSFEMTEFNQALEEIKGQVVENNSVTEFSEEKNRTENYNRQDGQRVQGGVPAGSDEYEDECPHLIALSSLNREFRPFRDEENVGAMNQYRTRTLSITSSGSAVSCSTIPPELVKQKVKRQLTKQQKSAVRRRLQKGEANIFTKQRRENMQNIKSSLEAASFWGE
T11 sequence (Q7KZI7 whole entry): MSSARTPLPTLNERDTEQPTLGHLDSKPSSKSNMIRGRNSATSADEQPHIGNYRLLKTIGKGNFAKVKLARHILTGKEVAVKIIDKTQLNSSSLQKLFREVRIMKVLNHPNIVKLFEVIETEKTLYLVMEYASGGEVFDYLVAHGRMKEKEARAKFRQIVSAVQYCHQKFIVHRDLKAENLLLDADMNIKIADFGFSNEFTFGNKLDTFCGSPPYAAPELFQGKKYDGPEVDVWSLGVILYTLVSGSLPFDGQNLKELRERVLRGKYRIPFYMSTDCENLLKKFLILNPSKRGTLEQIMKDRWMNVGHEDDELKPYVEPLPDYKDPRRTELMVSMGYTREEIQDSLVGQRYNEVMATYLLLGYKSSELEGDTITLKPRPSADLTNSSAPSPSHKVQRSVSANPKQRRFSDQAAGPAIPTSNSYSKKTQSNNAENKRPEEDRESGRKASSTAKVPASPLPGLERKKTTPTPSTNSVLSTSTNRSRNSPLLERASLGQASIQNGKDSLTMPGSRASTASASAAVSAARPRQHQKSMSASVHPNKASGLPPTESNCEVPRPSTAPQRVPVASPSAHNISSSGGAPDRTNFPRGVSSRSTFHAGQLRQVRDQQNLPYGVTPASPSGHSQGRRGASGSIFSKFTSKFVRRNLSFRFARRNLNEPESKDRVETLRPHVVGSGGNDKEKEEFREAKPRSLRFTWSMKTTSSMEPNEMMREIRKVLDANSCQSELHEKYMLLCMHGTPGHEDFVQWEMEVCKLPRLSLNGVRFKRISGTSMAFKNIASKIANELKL
T3 sequence (Q9P289 whole entry): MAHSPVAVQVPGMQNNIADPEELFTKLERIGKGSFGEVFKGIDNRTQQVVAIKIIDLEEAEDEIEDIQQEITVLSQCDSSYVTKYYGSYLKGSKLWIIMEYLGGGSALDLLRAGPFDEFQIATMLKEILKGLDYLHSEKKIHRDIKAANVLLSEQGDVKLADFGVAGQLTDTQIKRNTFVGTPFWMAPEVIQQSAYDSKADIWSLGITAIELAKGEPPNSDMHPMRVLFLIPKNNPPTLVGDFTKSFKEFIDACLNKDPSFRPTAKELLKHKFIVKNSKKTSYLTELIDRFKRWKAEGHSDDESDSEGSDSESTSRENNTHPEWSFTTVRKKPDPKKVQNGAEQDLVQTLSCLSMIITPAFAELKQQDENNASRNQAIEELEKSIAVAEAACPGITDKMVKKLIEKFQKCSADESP
T10 sequence (P27448 whole entry): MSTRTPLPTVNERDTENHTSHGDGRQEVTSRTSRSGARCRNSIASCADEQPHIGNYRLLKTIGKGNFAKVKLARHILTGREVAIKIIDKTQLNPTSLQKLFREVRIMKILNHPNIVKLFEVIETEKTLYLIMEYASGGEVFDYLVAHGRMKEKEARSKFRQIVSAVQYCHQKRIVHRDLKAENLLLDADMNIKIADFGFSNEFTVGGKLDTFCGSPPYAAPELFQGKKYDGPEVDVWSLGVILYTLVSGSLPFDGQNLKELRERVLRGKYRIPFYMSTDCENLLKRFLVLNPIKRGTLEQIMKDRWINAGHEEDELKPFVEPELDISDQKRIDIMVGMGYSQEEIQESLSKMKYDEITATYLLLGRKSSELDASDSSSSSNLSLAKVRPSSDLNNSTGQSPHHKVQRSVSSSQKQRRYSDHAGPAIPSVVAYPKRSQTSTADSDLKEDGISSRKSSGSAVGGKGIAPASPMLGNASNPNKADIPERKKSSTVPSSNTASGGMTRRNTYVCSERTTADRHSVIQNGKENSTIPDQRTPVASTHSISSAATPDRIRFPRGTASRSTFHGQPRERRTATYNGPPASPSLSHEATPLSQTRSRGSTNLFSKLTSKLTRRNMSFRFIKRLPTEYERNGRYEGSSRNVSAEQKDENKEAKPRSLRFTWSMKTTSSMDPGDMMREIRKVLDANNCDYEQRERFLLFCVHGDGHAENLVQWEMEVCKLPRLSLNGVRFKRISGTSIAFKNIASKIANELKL

Structure (SMILES) | remaining binding at 1 µM (MAST1) | remaining binding at 1 µM (RIOK2) | remaining binding at 1 µM (MST4) | remaining binding at 1 µM [1] | remaining binding at 1 µM (DCAMKL3) | remaining binding at 1 µM (p38-delta) | remaining binding at 1 µM (ACVR1) | remaining binding at 1 µM (SRPK1) | remaining binding at 1 µM (SGK2) | remaining binding at 1 µM (MARK3) | remaining binding at 1 µM (MARK2) | remaining binding at 1 µM (FGR) | remaining binding at 1 µM (YES)
Clc1cc(NCC2CC2)c2ncc(-c3ccc4[nH]ncc4c3)n2n1 [compound 2, 6-Chloro-N-(cyclopropylmethyl)-3-(1H-indazol-5-yl)imidazo[1,2-b]pyridazin-8-amine] | 91% | 70% | 88% | 100% | 100% | 89% | 90% | 100% | 89% | 100% | 96% | 75% | 91%
O=C(CN1CCOCC1)N[C@H]1CC[C@H](Nc2cc(Cl)nn3c(-c4ccc5[nH]ncc5c4)cnc23)CC1 [compound 26] | 73% | 67% | 84% | 99% | 100% | 60% | 95% | 79% | 100% | 99% | 88% | 93% | 93%
CN1CCC(CNc2cc(Cl)nn3c(-c4cc5nc(Nc6ccccc6)[nH]c5cc4F)cnc23)CC1 [compound 31, 6-Chloro-3-(6-fluoro-2-(phenylamino)-1H-benzo[d]imidazol-5-yl)-N-((1-methylpiperidin-4-yl)methyl)imidazo[1,2-b]pyridazin-8-amine] | 63% | 61% | 100% | 91% | 100% | 72% | 99% | 84% | 83% | 60% | 100% | 100% | 96%

From article PMC6437697 (Journal of Medicinal Chemistry, 2019)
